In US7569337B2, “Coumarines useful as biomarkers” (Novartis AG, priority 2002, dated 2009):

Compound: O=c1oc2cc3c(cc2cc1-c1cn2cc(Cl)ccc2n1)CCCN3CCF [Example 2, 3-(6-Chloro-imidazo[1,2-a]pyridin-2-yl)-8-(2-fluoro-ethyl)-5,6,7,8-tetrahydro-1-oxa-8-aza-anthracen-2-one]
- melting point: 290 °C (dec.)
